Results from patent US10238688B2, “Combination therapies for bladder cancer” (GENEDIA BIOTECH CO. LTD., priority 2015, dated 2019).

Columns and labels:
Wnt pathway = test: Cignal Finder dual-luciferase pathway reporter, Wnt; assay type: cell-based, human; design: key to Relative activity, Wnt reporter: firefly/renilla ratio, background (negative control) subtracted; conditions: for Relative activity, Wnt reporter: luc/Renluc relative to negative control reporter, single drug at 4 folds vs EH/Ci/Mi combination
Description: The pathway analysis was performed with Qiagen's Cignal Finder Pathway Reporter Array systems according to the manufacturer's instructions. The pathway-focused dual-luciferase reporter construct was a mixture of an inducible transcription factor responsive firefly luciferase reporter and constitutively expressing renilla construct. Transcriptional response element (TRE) sequence response elements to each specific transcriptional factor triggered by the different signaling pathways are positioned before the TATA box of firefly luciferase reporter gene. The extent of activity of the reporter reflects the level of activity of the particular signaling pathway. CMV controlled renilla expression vector is co-transfected into the cell as an internal control. Non-inducible reporter construct that lacks the transcriptional factor binding sequence and could not be induced by any transcription factors is used as a negative control. Cells transfected with CMV directed firefly luciferase reporter gene serve as a positive control. Briefly, cells seeded in 6-well plates were transfected with Cignal finder pathway arrays according to the manufacturer's instructions (Qiagen). Then cells were seeded onto 96-well plates. Ci (6000 ng/mL), Mi (800 ng/mL), or EH (1000 ng/mL) and Ci/Mi/EH combination (Ci, 1500 ng/mL, Mi, 800 ng/mL and EH, 1000 ng/m L) were then added to the cells 24 h post-transfection. After 6 h of incubation with the different drugs at 37° C., cells were lysed and a dual luciferase assay (for firefly and renilla luciferase) was performed using a PromegaGloMax 20/20 illuminometer. The firefly luciferase activities were normalized over the renilla luciferase activities after background activity determined by luciferase activities of negative controls was subtracted. A triple test of cell survival under these drug doses was also performed by MTT assay following 18 h incubation at 37° C. […]

[1] = tested on: Ki67-positive cells in tumor xenografts; test: Ki67 immunohistochemistry of tumor xenografts; assay type: in vivo, BALB/C male nude mice; conditions: relative to PBS controls; day 28
Description: (§1) Immunostaining was performed on 5 μm slices of formalin fixed paraffin-embedded tumor xenografts using antibodies from Gene Tech Company (Shanghai, China) against both Ki67 and CD34. Pictures were taken by LEICA DM 4000B microscope and the relative level of each protein was calculated using LEICA software. The relative staining per antibody (in percentage) in the […] tumors was calculated and plotted.
(§2) This example then compared the in vivo anticancer activity of EH/Ci/Mi regimen with its mono- and bi-drug counterparts on the 5637, UM-UC-3, or Biu87 cells derived tumor xenografts in nude mice. Since there is no established conversion rule for the drug dose in cell culture to in nude mice, this example used 75 μg per mouse for the mono-drug treatments and 25 μg per drug per mouse for both bi-drug and tri-drug combinations, based on the maximum tolerated drug dose recommended for these drugs. To minimize the inter-mouse bias's effect on tumor growth, three different BCa cell line-derived tumor xenografts were individually established subcutaneously on the back of the twelve mice (FIG. 5A). […] The tumor volumes were measured once every three days and were normalized by the volume on day 7. […]

[2] = tested on: UM-UC-3 derived tumor xenografts; test: UM-UC-3 tumor xenograft growth in nude mice; assay type: in vivo, BALB/C male nude mice
Description: (§3) Each experiment was performed three times. All animals were adult BALB/C male nude mice of 8-12 weeks of age and experiments were performed in accordance with the National Institutes of Health Guide for the Care and Use of Laboratory Animals and approved by the animal research committee of Harbin Medical University, China.
(§4) Cells (1×10^6-7th/100 μL) embedded in BD Matrigel™ Matrix were subcutaneously injected at three sites in the back of each mouse (3-4 mice per treatment). On day 7-12th following cell injection, the animals were treated with the different drugs by an intraperitoneal injection, which was repeated every three days. Tumor volumes were monitored/calculated using the equation V=W^2L×0.5 (where W and L represent the […] tumor diameters (mm)) and then plotted. The tumor mass mice were weighed, fixed/sliced for immunohistochemistry after sacrificing the animals.
(§5) Two sets of tumor xenograft/nude mice studies were carried out. The in vivo study involves […]. Both mean±S.D of tumor volume and mass were calculated. […]
(§6) This example then compared the in vivo anticancer activity of EH/Ci/Mi regimen with its mono- and bi-drug counterparts on the 5637, UM-UC-3, or Biu87 cells derived tumor xenografts in nude mice. […] The tumor volumes were measured once every three days and were normalized by the volume on day 7. […]

[3] = tested on: CD34 positive vascular structures in tumor xenografts; test: CD34 immunohistochemistry of tumor xenografts; assay type: in vivo, BALB/C male nude mice; conditions: relative to PBS controls; day 28
Description: as §1, §2

[4] = tested on: 5637 derived tumor xenografts; test: 5637 tumor xenograft growth in nude mice; assay type: in vivo, BALB/C male nude mice
Description: as §3, §4, §5, §6

[5] = tested on: Biu87 derived tumor xenografts; test: Biu87 tumor xenograft growth in nude mice; assay type: in vivo, BALB/C male nude mice
Description: as §3, §4, §5, §6

Compound	digitalized pathway activity, Wnt (Wnt pathway; 5637 cells)	relative drug trigged pathway activity over the no-drug level, Wnt (Wnt pathway; 5637 cells) [fold]	Relative activity, Wnt reporter (Wnt pathway; 5637 cells)	digitalized pathway activity, Wnt (Wnt pathway; Biu87 cells)	relative drug trigged pathway activity over the no-drug level, Wnt (Wnt pathway; Biu87 cells) [fold]	Relative activity, Wnt reporter (Wnt pathway; Biu87 cells)	digitalized pathway activity, Wnt (Wnt pathway; H-bc cells)	relative drug trigged pathway activity over the no-drug level, Wnt (Wnt pathway; H-bc cells) [fold]	Relative activity, Wnt reporter (Wnt pathway; H-bc cells)	digitalized pathway activity, Wnt (Wnt pathway; SV-HUC-1 cells)	relative drug trigged pathway activity over the no-drug level, Wnt (Wnt pathway; SV-HUC-1 cells) [fold]	Relative activity, Wnt reporter (Wnt pathway; SV-HUC-1 cells)	digitalized pathway activity, Wnt (Wnt pathway; UM-UC-3 cells)	Relative activity, Wnt reporter (Wnt pathway; UM-UC-3 cells)	relative drug trigged pathway activity over the no-drug level, Wnt (Wnt pathway; Um-Uc-3 cells) [fold]	further results
COc1cccc2c1C(=O)c1c(O)c3c(c(O)c1C2=O)C[C@@](O)(C(=O)CO)C[C@@H]3[C@@H]1C[C@H](N)[C@@H](O)[C@H](C)O1 [EH, (8R,10S)-10-((2S,4S,5R,6S)-4-amino-5-hydroxy-6-methyltetrahydro-2H-pyran-2-yl)-6,8,11-trihydroxy-8-(2-hydroxyacetyl)-1-methoxy-7,8,9,10-tetrahydrotetracene-5,12-dione]	0 (null (0) if neither of the above holds)	1.19	1.04	0 (null (0) if neither of the above holds)	0.95	1.57	0 (null (0) if neither of the above holds)	1.03	1.10	0 (null (0) if neither of the above holds)	1.05	1.30	0 (null (0) if neither of the above holds)	4.12	1.15	
COC12C(COC(N)=O)C3=C(C(=O)C(C)=C(N)C3=O)N1CC1NC12 (centres unmarked) [Mi, [6-Amino-8a-methoxy-5-methyl-4,7-dioxo-1,1a,2,4,7,8,8a,8b-octahydroazireno [2′,3′:3,4]pyrrolo[1,2-a]indol-8-yl]methyl carbamate]		1.87	1.63	0 (null (0) if neither of the above holds)	1.06	1.77	0 (null (0) if neither of the above holds)	0.55	0.60	0 (null (0) if neither of the above holds)	1.29	1.60	0 (null (0) if neither of the above holds)	4.06	1.13	
N.N.[Cl][Pt][Cl] [Ci, (SP-4-2)-diamminedichloroplatinum(II)]	0 (null (0) if neither of the above holds)	1.14	1.00		0.41	0.69	0 (null (0) if neither of the above holds)	0.78	3.14	0 (null (0) if neither of the above holds)	1.25	1.55		1.73	0.48	percentage of Ki67-positive cells in tumor xenografts [1]: reduced; relative tumor weight ([2]; UM-UC-3 derived tumor, day 28, tri-drug group taken as 1): 3.37; increase in tumor volume on day 28th (relative tumor volume) ([2]; UM-UC-3 xenograft, normalized by volume on day 7, i.p. at three-day interval, 75 μg per mouse mono-drug, 25 μg per drug per mouse combinations): 10.58; numbers of CD34 positive vascular structures in tumor xenografts [3]: reduced; relative tumor weight ([4]; 5637 derived tumor, day 28, tri-drug group taken as 1): 1.79; relative tumor volume ([4]; 5637 xenograft, normalized by volume on day 7, i.p. at three-day interval, 75 μg per mouse mono-drug, 25 μg per drug per mouse combinations): 6.2; relative tumor weight ([5]; Biu87 derived tumor, day 28, tri-drug group taken as 1): 1.48; increase in tumor volume on day 28th (relative tumor volume) ([5]; Biu87 xenograft, normalized by volume on day 7, i.p. at three-day interval, 75 μg per mouse mono-drug, 25 μg per drug per mouse combinations): 4.95
